Assay results published in ChEMBL document CHEMBL5108063, “Discovery, Chemistry, and Preclinical Development of Pritelivir, a Novel Treatment Option for Acyclovir-Resistant Herpes Simplex Virus Infections” (J Med Chem, 2022).
pIC50: −log10 of the molar value.

Experiments:
[1] = test system: Human alphaherpesvirus 1; assay: Antiviral activity against HSV-1 infected in Vero cells incubated for 5 days by fluorescence based microtiter plate reader assay; type: functional, organism-based; conditions: Human alphaherpesvirus 1, Vero, 120 h
[2] = test system: Human alphaherpesvirus 2; assay: Antiviral activity against HSV-2 infected in Vero cells incubated for 5 days by fluorescence based microtiter plate reader assay; type: functional, organism-based; conditions: Human alphaherpesvirus 2, Vero, 120 h
[3] = test system: Human alphaherpesvirus 1; assay: Antiviral activity against HSV-1 infected in po dosed BALB/c mouse administered twice on infection day and three times daily from day 1 to 4 post infection; type: functional; conditions: Human alphaherpesvirus 1, 96 h, time 4 day
[4] = test system: Human alphaherpesvirus 2; assay: Antiviral activity against HSV-2 infected in po dosed BALB/c mouse administered twice on infection day and three times daily from day 1 to 4 post infection; type: functional; conditions: Human alphaherpesvirus 2, 24 h
[5] = target: Carbonic anhydrase 2 (Homo sapiens, UniProt P00918); assay: Inhibition of carbonic anhydrase 2 (unknown origin) by CO2 hydration assay
[6] = test system: Human alphaherpesvirus 1; assay: Antiviral activity against HSV-1 McKrae infected in BALB/c mouse assessed as reduction in viral load at 50 mg/kg, po infected with virus for 35 days prior to heat stress reactivation followed by compound treatment immediately and at 12 hrs post reactivation measured after 24 hrs post reactivation; type: functional; design: scale not given: the % may be the effect or the level left
[7] = AUC in rat at 1 mg/kg, po; type: ADME, organism-based; design: dose 1 mg/kg, route po; conditions: in vivo
[8] = AUC in dog at 1 mg/kg, po; type: ADME, organism-based, Canis lupus familiaris; design: dose 1 mg/kg, route po; conditions: in vivo
[9] = AUC in monkey at 1 mg/kg, po; type: ADME, organism-based, Macaca mulatta; design: dose 1 mg/kg, route po; conditions: rhesus monkey, in vivo
[10] = AUC in human at 1 mg/kg, po; type: ADME, organism-based; design: dose 1 mg/kg, route po; conditions: in vivo
[11] = Half life in rat at 1 mg/kg, po; type: ADME, organism-based; conditions: in vivo
[12] = Half life in dog at 1 mg/kg, po; type: ADME, organism-based, Canis lupus familiaris; conditions: in vivo
[13] = Half life in monkey at 1 mg/kg, po; type: ADME, organism-based, Macaca mulatta; conditions: rhesus monkey, in vivo
[14] = Half life in human at 1 mg/kg, po; type: ADME, organism-based; conditions: in vivo
[15] = Oral bioavailability in rat at 1 mg/kg; type: ADME, organism-based; conditions: in vivo
[16] = Oral bioavailability in dog at 1 mg/kg; type: ADME, organism-based, Canis lupus familiaris; conditions: in vivo
[17] = Oral bioavailability in monkey at 1 mg/kg; type: ADME, organism-based, Macaca mulatta; conditions: rhesus monkey, in vivo
[18] = Oral bioavailability in human at 1 mg/kg; type: ADME, organism-based; conditions: in vivo
[19] = Protein binding in mouse plasma assessed as unbound fraction; type: ADME, cell-free
[20] = Protein binding in rat plasma assessed as unbound fraction; type: ADME, cell-free
[21] = Protein binding in guinea pig plasma assessed as unbound fraction; type: ADME, cell-free, Cavia porcellus
[22] = Protein binding in rabbit plasma assessed as unbound fraction; type: ADME, cell-free, Oryctolagus cuniculus
[23] = Protein binding in dog plasma assessed as unbound fraction; type: ADME, cell-free, Canis lupus familiaris
[24] = Protein binding in minipig plasma assessed as unbound fraction; type: ADME, cell-free, Sus scrofa domesticus; conditions: pig
[25] = Protein binding in monkey plasma assessed as unbound fraction; type: ADME, cell-free, Macaca mulatta; conditions: rhesus monkey
[26] = Protein binding in human plasma assessed as unbound fraction; type: ADME, cell-free
[27] = target: Voltage-gated inwardly rectifying potassium channel KCNH2 (Homo sapiens, UniProt Q12809); assay: Inhibition of human ERG expressed in HEK293 cells by whole cell patch clamp assay; type: toxicity, cell-based
Chain of Voltage-gated inwardly rectifying potassium channel KCNH2 (Q12809 whole entry): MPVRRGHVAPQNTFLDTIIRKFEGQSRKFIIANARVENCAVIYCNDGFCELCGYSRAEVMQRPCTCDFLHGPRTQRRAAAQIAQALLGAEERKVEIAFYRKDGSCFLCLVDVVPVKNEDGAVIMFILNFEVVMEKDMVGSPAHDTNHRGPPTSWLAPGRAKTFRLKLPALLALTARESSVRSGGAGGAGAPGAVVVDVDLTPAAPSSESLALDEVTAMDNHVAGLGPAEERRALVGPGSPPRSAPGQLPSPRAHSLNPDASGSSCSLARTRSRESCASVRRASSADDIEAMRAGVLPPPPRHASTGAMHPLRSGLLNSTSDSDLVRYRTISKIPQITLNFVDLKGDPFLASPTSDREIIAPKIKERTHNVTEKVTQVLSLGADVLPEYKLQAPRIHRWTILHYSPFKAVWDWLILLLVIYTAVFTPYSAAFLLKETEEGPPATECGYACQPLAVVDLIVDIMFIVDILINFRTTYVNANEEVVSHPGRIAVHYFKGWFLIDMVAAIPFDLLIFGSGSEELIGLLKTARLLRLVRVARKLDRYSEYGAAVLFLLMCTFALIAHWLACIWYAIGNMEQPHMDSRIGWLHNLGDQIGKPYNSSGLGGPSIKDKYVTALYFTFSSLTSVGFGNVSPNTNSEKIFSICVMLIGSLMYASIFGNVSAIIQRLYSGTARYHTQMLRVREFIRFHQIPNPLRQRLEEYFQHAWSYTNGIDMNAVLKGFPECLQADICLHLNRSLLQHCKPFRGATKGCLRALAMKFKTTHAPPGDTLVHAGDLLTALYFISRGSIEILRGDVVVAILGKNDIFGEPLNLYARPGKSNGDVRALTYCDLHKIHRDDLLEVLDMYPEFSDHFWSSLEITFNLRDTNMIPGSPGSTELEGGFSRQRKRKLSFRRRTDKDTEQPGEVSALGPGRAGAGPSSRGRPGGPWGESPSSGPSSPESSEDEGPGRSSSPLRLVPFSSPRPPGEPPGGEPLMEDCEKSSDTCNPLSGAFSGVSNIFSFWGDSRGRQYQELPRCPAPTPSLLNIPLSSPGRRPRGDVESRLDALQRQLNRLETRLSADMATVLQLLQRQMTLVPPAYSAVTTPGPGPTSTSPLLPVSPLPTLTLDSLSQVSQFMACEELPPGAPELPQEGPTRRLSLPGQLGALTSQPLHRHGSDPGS

[28] = Terminal elimination half life in human at […]; type: ADME, organism-based; conditions: in vivo, read-out: beta t1/2 (converted)
[29] = Oral bioavailability in human at 400 mg administered as 1 hr intravenous infusion; type: ADME, organism-based; conditions: in vivo
[30] = Octanol/water partition coefficient, log P of the compound; type: physicochemical
[31] = Oral bioavailability in rat; type: ADME, organism-based; conditions: in vivo
[32] = Oral bioavailability in dog; type: ADME, organism-based, Canis lupus familiaris; conditions: in vivo
[33] = Oral bioavailability in monkey; type: ADME, organism-based, Macaca mulatta; conditions: rhesus monkey, in vivo
[34] = Oral bioavailability in human at 350 mg administered as 1 hr intravenous infusion once a week and measured upto 24 hrs; type: ADME, organism-based; conditions: in vivo

## Cc1nc(N(C)C(=O)Cc2ccc(-c3ccccc3)cc2)sc1S(=O)(=O)NCCO
[1]
  pIC50: 9.12
[2]
  pIC50: 8.30

## Cc1nc(N(C)C(=O)Cc2ccc(-c3ccccn3)cc2)sc1S(N)(=O)=O
[1]
  pIC50: 7.70
[2]
  pIC50: 7.80
[3]
  ED50: 22 mg/kg
[4]
  ED50: 16 mg/kg
[5]
  pIC50: 5.70
[6]
  Activity: 32%
[7]
  AUC: 12900 ng·h/mL
[8]
  AUC: 54200 ng·h/mL
[9]
  AUC: 39500 ng·h/mL
[10]
  AUC: 90800 ng·h/mL
[11]
  t1/2: 5 h
[12]
  t1/2: 22 h
[13]
  t1/2: 30 h
[14]
  half-life: 60 h
[15]
  bioavailability: 65%
[16]
  bioavailability: 83%
[17]
  F: 63%
[18]
  F: 73%
[19]
  Fu: 0.97%
[20]
  Fu: 1.2%
[21]
  Fu: 5.9%
[22]
  Fu: 3.4%
[23]
  Fu: 1%
[24]
  Fu: 2.5%
[25]
  Fu: 0.75%
[26]
  Fu: 2.7%
[27]
  pIC50: 3.80
[28]
  half-life: 60 h
[29]
  bioavailability: 60%

## CNS(=O)(=O)c1sc(N(C)C(=O)Cc2ccc(-c3ccccc3)cc2)nc1C
[1]
  pIC50: 9.30
[2]
  pIC50: 7.30

## Cc1nc(N(C)C(=O)Cc2ccc(-n3cccn3)cc2)sc1S(N)(=O)=O
[1]
  pIC50: 8.00
[2]
  pIC50: 7.00

## Cc1nc(N(C)C(=O)Cc2ccc(-c3ccccc3)cc2)sc1S(N)(=O)=O
[1]
  pIC50: > 10.30
[2]
  pIC50: 8.30

## CNS(=O)(=O)c1ccc2c(c1)N(C(=O)Nc1ccc(N3CCCC3)cc1)C(C)C2 (centres undefined)
[1]
  pIC50: 7.60
[2]
  pIC50: 7.40

## Cc1ccc(F)cc1-c1ccc(CC(=O)N(C)c2nc(C)c(S(N)(=O)=O)s2)cc1
[1]
  pIC50: 7.00
[2]
  pIC50: 6.90

## CC1Cc2ccc(S(N)(=O)=O)cc2N1C(=O)Nc1ccc(-c2ccccc2)cc1 (centres undefined)
[1]
  pIC50: 8.00
[2]
  pIC50: 7.22

## Cc1nc(N(C)C(=O)Cc2ccc(-c3ccccc3)cc2)sc1S(=O)(=O)NCCN
[1]
  pIC50: 7.00

## COc1ccccc1-c1ccc(CC(=O)N(C)c2nc(C)c(S(N)(=O)=O)s2)cc1
[1]
  pIC50: 8.70
[2]
  pIC50: 10.30

## Cc1nc(N(C)C(=O)Cc2ccc(-c3c(C)noc3C)cc2)sc1S(N)(=O)=O
[1]
  pIC50: < 8.30

## CC1Cc2ccc(S(=O)(=O)NC3CC3)cc2N1C(=O)Nc1ccc(-c2ccccc2)cc1 (centres undefined)
[1]
  pIC50: 7.30
[2]
  pIC50: 6.82

## Cc1nc(NC(=O)Nc2ccc(N3CCOCC3)cc2)sc1S(=O)(=O)N(C)C
[1]
  pIC50: 5.70
[2]
  pIC50: 5.40

## Cc1nc(N(C)C(=O)Nc2ccc(-c3ccccc3)cc2)sc1S(=O)(=O)NC1CC1
[1]
  pIC50: 7.70
[2]
  pIC50: 7.00

## CS(=O)(=O)O.Cc1nc(N(C)C(=O)Cc2ccc(-c3ccccn3)cc2)sc1S(N)(=O)=O.O
[30]
  logP: 1.745

## Cc1nc(N(C)C(=O)Cc2ccc(-c3ccccc3)cc2)sc1S(=O)(=O)NCC(F)(F)F
[1]
  pIC50: 7.30
[2]
  pIC50: 6.82

## COc1ccc(F)cc1-c1ccc(CC(=O)N(C)c2nc(C)c(S(N)(=O)=O)s2)cc1
[1]
  pIC50: 9.60
[2]
  pIC50: > 10.30

## Cc1nc(C(C)C(=O)Nc2ccc(-c3ccccc3)cc2)sc1S(N)(=O)=O (centres undefined)
[1]
  pIC50: 7.30
[2]
  pIC50: 8.00

## Cc1nc(N(C)C(=O)Cc2ccc(-c3cccnc3)cc2)sc1S(N)(=O)=O
[1]
  pIC50: 8.30
[2]
  pIC50: 8.30

## Cc1nc(N(C)C(=O)Nc2ccc(N3CCOCC3)cc2)sc1S(=O)(=O)N(C)C
[1]
  pIC50: 6.12
[2]
  pIC50: 5.82

## CNS(=O)(=O)c1sc(N(C)C(=O)Nc2ccc(-c3ccccc3)cc2)nc1C
[1]
  pIC50: 9.00
[2]
  pIC50: 8.30

## Nc1nc2c(ncn2COCCO)c(=O)[nH]1 [ACYCLOVIR]
[4]
  ED50: 0.5 mg/kg
[31]
  bioavailability: 65%
[32]
  bioavailability: 83%
[33]
  bioavailability: 63%
[34]
  bioavailability: 54%

## Nc1nc2c(ncn2CCC(CO)CO)c(=O)[nH]1 [PENCICLOVIR]
[29]
  bioavailability: 60%

## CC(C)[C@H](N)C(=O)OCCOCn1cnc2c(=O)nc(N)[nH]c21 [VALACYCLOVIR]
[3]
  ED50: 17 mg/kg
[4]
  ED50: 14 mg/kg
